From PubChem BioAssay AID1259407 (Chemical Carcinogenesis Research Information System (CCRIS), 2018)
Calls of active or inactive are those of the source. The rule behind the calls is not given here.

Test system: CCRIS mutagenicity, Ames/micronucleus/aberration tests
Assay: CCRIS mutagenicity studies
[1] = Test System: AMES SALMONELLA TYPHIMURIUM, Strain/Indicator: TA98, Metabolic Activation: NONE, Method: PREINCUBATION
[2] = Test System: AMES SALMONELLA TYPHIMURIUM, Strain/Indicator: TA100, Metabolic Activation: NONE, Method: PREINCUBATION
[3] = Test System: AMES SALMONELLA TYPHIMURIUM, Strain/Indicator: TA1535, Metabolic Activation: NONE, Method: PREINCUBATION
[4] = Test System: AMES SALMONELLA TYPHIMURIUM, Strain/Indicator: TA1537, Metabolic Activation: NONE, Method: PREINCUBATION

`O=c1ccc2ccccc2o1` was tested, and the mutagenic call (End Point: IN VITRO CHROMOSOMAL ABERRATIONS, Test System: CHINESE HAMSTER OVARY CELLS, Metabolic Activation: NONE) was “inactive; negative”, the mutagenic call (End Point: IN VITRO CHROMOSOMAL ABERRATIONS, Test System: CHINESE HAMSTER OVARY CELLS, Metabolic Activation: RAT, LIVER, S-9, AROCLOR 1254) was “active; positive” and the mutagenic call (End Point: IN VIVO MICRONUCLEUS, Test System: BONE MARROW CELLS, Species: MOUSE, Strain/Sex: SWISS/MALE, FEMALE, Route: GAVAGE) was “inactive; negative”. For the same compound, the mutagenic call (Test System: AMES SALMONELLA TYPHIMURIUM, Strain/Indicator: TA98, Metabolic Activation: HAMSTER, LIVER, S-9, AROCLOR 1254 (10%), Method: PREINCUBATION) was “inactive; negative”, the mutagenic call (Test System: AMES SALMONELLA TYPHIMURIUM, Strain/Indicator: TA98, Metabolic Activation: NONE, Method: FLUCTUATION (MICROTITER)) was “inactive; negative” and the mutagenic call [1] was “inactive; negative”. For the same compound, the mutagenic call (Test System: AMES SALMONELLA TYPHIMURIUM, Strain/Indicator: TA98, Metabolic Activation: RAT LIVER S-9, AROCLOR 1254, Method: FLUCTUATION (MICROTITER)) was “inactive; negative”, the mutagenic call (Test System: AMES SALMONELLA TYPHIMURIUM, Strain/Indicator: TA98, Metabolic Activation: RAT, LIVER, S-9, AROCLOR 1254 (10%), Method: PREINCUBATION) was “inactive; negative” and the mutagenic call (Test System: AMES SALMONELLA TYPHIMURIUM, Strain/Indicator: TA100, Metabolic Activation: HAMSTER, LIVER, S-9, AROCLOR 1254 (10%), Method: PREINCUBATION) was “active; positive”. The mutagenic call [2] was “inactive; negative”, the mutagenic call (Test System: AMES SALMONELLA TYPHIMURIUM, Strain/Indicator: TA1535, Metabolic Activation: HAMSTER, LIVER, S-9, AROCLOR 1254 (10%), Method: PREINCUBATION) was “inactive; negative” and the mutagenic call [3] was “inactive; negative”. For the same compound, the mutagenic call (Test System: AMES SALMONELLA TYPHIMURIUM, Strain/Indicator: TA1535, Metabolic Activation: RAT, LIVER, S-9, AROCLOR 1254 (10%), Method: PREINCUBATION) was “inactive; negative”, the mutagenic call (Test System: AMES SALMONELLA TYPHIMURIUM, Strain/Indicator: TA1537, Metabolic Activation: HAMSTER, LIVER, S-9, AROCLOR 1254 (10%), Method: PREINCUBATION) was “inactive; negative” and the mutagenic call (Test System: AMES SALMONELLA TYPHIMURIUM, Strain/Indicator: TA1537, Metabolic Activation: NONE, Method: FLUCTUATION (MICROTITER)) was “inactive; negative”. The mutagenic call [4] was “inactive; negative”, the mutagenic call (Test System: AMES SALMONELLA TYPHIMURIUM, Strain/Indicator: TA1537, Metabolic Activation: RAT LIVER S-9, AROCLOR 1254, Method: FLUCTUATION (MICROTITER)) was “inactive; negative” and the mutagenic call (Test System: AMES SALMONELLA TYPHIMURIUM, Strain/Indicator: TA1537, Metabolic Activation: RAT, LIVER, S-9, AROCLOR 1254 (10%), Method: PREINCUBATION) was “inactive; negative”. For the same compound, the mutagenic call (Test System: AMES SALMONELLA TYPHIMURIUM, Strain/Indicator: TA7001, Metabolic Activation: NONE, Method: FLUCTUATION (MICROTITER)) was “inactive; negative”, the mutagenic call (Test System: AMES SALMONELLA TYPHIMURIUM, Strain/Indicator: TA7001, Metabolic Activation: RAT LIVER S-9, AROCLOR 1254, Method: FLUCTUATION (MICROTITER)) was “inactive; negative” and the mutagenic call (Test System: AMES SALMONELLA TYPHIMURIUM, Strain/Indicator: TA7002, Metabolic Activation: NONE, Method: FLUCTUATION (MICROTITER)) was “inactive; negative”. For the same compound, the mutagenic call (Test System: AMES SALMONELLA TYPHIMURIUM, Strain/Indicator: TA7002, Metabolic Activation: RAT LIVER S-9, AROCLOR 1254, Method: FLUCTUATION (MICROTITER)) was “active; positive”, the mutagenic call (Test System: AMES SALMONELLA TYPHIMURIUM, Strain/Indicator: TA7003, Metabolic Activation: NONE, Method: FLUCTUATION (MICROTITER)) was “inactive; negative” and the mutagenic call (Test System: AMES SALMONELLA TYPHIMURIUM, Strain/Indicator: TA7003, Metabolic Activation: RAT LIVER S-9, AROCLOR 1254, Method: FLUCTUATION (MICROTITER)) was “inactive; negative”. For the same compound, the mutagenic call (Test System: AMES SALMONELLA TYPHIMURIUM, Strain/Indicator: TA7004, Metabolic Activation: NONE, Method: FLUCTUATION (MICROTITER)) was “inactive; negative”, the mutagenic call (Test System: AMES SALMONELLA TYPHIMURIUM, Strain/Indicator: TA7004, Metabolic Activation: RAT LIVER S-9, AROCLOR 1254, Method: FLUCTUATION (MICROTITER)) was “inactive; negative” and the mutagenic call (Test System: AMES SALMONELLA TYPHIMURIUM, Strain/Indicator: TA7005, Metabolic Activation: NONE, Method: FLUCTUATION (MICROTITER)) was “inactive; negative”. The mutagenic call (Test System: AMES SALMONELLA TYPHIMURIUM, Strain/Indicator: TA7005, Metabolic Activation: RAT LIVER S-9, AROCLOR 1254, Method: FLUCTUATION (MICROTITER)) was “inactive; negative”, the mutagenic call (Test System: AMES SALMONELLA TYPHIMURIUM, Strain/Indicator: TA7006, Metabolic Activation: NONE, Method: FLUCTUATION (MICROTITER)) was “inactive; negative” and the mutagenic call (Test System: AMES SALMONELLA TYPHIMURIUM, Strain/Indicator: TA7006, Metabolic Activation: RAT LIVER S-9, AROCLOR 1254, Method: FLUCTUATION (MICROTITER)) was “inactive; negative”. The mutagenic call (Test System: UDS HUMAN HEPATOCYTES, Strain/Indicator: THY INCORP, Metabolic Activation: NONE, Method: AUTORADIOGRAPHY) was “inactive; negative”.
For `Nc1cc(C(=O)O)c(O)c(S(=O)(=O)O)c1`, the mutagenic call (Test System: AMES SALMONELLA TYPHIMURIUM, Strain/Indicator: TA97, Metabolic Activation: HAMSTER, LIVER, S-9, AROCLOR 1254 (10 OR 30%), Method: PREINCUBATION) was “inactive; negative”, the mutagenic call (Test System: AMES SALMONELLA TYPHIMURIUM, Strain/Indicator: TA97, Metabolic Activation: NONE, Method: PREINCUBATION) was “inactive; negative” and the mutagenic call (Test System: AMES SALMONELLA TYPHIMURIUM, Strain/Indicator: TA97, Metabolic Activation: RAT, LIVER, S-9, AROCLOR 1254 (10%), Method: PREINCUBATION) was “inactive; negative”. For the same compound, the mutagenic call (Test System: AMES SALMONELLA TYPHIMURIUM, Strain/Indicator: TA97, Metabolic Activation: RAT, LIVER, S-9, AROCLOR 1254 (30%), Method: PREINCUBATION) was “inactive; negative”, the mutagenic call (Test System: AMES SALMONELLA TYPHIMURIUM, Strain/Indicator: TA98, Metabolic Activation: HAMSTER, LIVER, S-9, AROCLOR 1254 (10 OR 30%), Method: PREINCUBATION) was “inactive; negative” and the mutagenic call [1] was “inactive; negative”. For the same compound, the mutagenic call (Test System: AMES SALMONELLA TYPHIMURIUM, Strain/Indicator: TA98, Metabolic Activation: RAT, LIVER, S-9, AROCLOR 1254 (10 OR 30%), Method: PREINCUBATION) was “inactive; negative”, the mutagenic call (Test System: AMES SALMONELLA TYPHIMURIUM, Strain/Indicator: TA100, Metabolic Activation: HAMSTER, LIVER, S-9, AROCLOR 1254 (10 OR 30%), Method: PREINCUBATION) was “inactive; negative” and the mutagenic call [2] was “inactive; negative”. For the same compound, the mutagenic call (Test System: AMES SALMONELLA TYPHIMURIUM, Strain/Indicator: TA100, Metabolic Activation: RAT, LIVER, S-9, AROCLOR 1254 (10 OR 30%), Method: PREINCUBATION) was “inactive; negative”, the mutagenic call (Test System: AMES SALMONELLA TYPHIMURIUM, Strain/Indicator: TA1535, Metabolic Activation: HAMSTER, LIVER, S-9, AROCLOR 1254 (10 OR 30%), Method: PREINCUBATION) was “inactive; negative” and the mutagenic call [3] was “inactive; negative”. The mutagenic call (Test System: AMES SALMONELLA TYPHIMURIUM, Strain/Indicator: TA1535, Metabolic Activation: RAT, LIVER, S-9, AROCLOR 1254 (10 OR 30%), Method: PREINCUBATION) was “inactive; negative”, the mutagenic call (Test System: AMES SALMONELLA TYPHIMURIUM, Strain/Indicator: TA1537, Metabolic Activation: HAMSTER, LIVER, S-9, AROCLOR 1254 (10 OR 30%), Method: PREINCUBATION) was “inactive; negative” and the mutagenic call [4] was “inactive; negative”. For the same compound, the mutagenic call (Test System: AMES SALMONELLA TYPHIMURIUM, Strain/Indicator: TA1537, Metabolic Activation: RAT, LIVER, S-9, AROCLOR 1254 (10 OR 30%), Method: PREINCUBATION) was “inactive; negative”.
`N=c1cc2oc3cc(N)ccc3nc-2c2ccccc12` was tested, and the mutagenic call (Test System: AMES SALMONELLA TYPHIMURIUM, Strain/Indicator: TA1538, Metabolic Activation: NONE, Method: STANDARD PLATE) was “inactive; negative” and the mutagenic call (Test System: AMES SALMONELLA TYPHIMURIUM, Strain/Indicator: TA1538, Metabolic Activation: RAT, LIVER, S-9, AROCLOR 1254, Method: STANDARD PLATE) was “active; positive”.
